From patent publication US20160038532A1, “Treatment of Multiple Sclerosis With Combination of Laquinimod and Glatiramer Acetate” (TEVA PHARMACEUTICAL INDUSTRIES, LTD., priority 2011, published 2016)
Where “and” joins values, the source holds several entries; their conditions need not be identical. Identical values can stand only once. Marks after values point to notes of the source that are not given here.

Tests used:
MOG-induced EAE [1] = experiment: MOG-induced EAE, lower doses of laquinimod with GA-blocking (Example 2.2); assay type: in vivo, C57B1/6 mice
Experimental: MOG is a member of the immunoglobulin superfamily expressed exclusively in CNS myelin. It is one of the most encephalitogenic proteins and is widely used to induce EAE in different rodent strains. In C57BL/6 mice, immunization with the MOG peptide pMOG35-55 in CFA induces chronic progressive EAE.
24 mg MOG was diluted in 8 ml PBS (3 mg/ml, stock solution). Groups 1, 3 and 5: 3.5 ml of stock solution was diluted 1:1 with PBS. […] 4.5 ml of MOG stock solution was added to this solution.
The high dose LAQ (5 mg/10 ml/kg) solution (40 mg in 80 ml DDW) was prepared once weekly and stored at room temperature. For the dose of 2.5 mg/kg LAQ, 25 ml of this solution were added to 25 ml DDW. For the dose 1 mg/kg 5 ml of stock solution (high dose) were added to 20 ml DDW. The compound was administered by gavage once daily during the whole experiment (30 days) at a volume of 0.2 ml/mouse.
The mice were observed daily from the 9th day post-EAE induction (first injection of MOG) and the EAE clinical signs were scored according to the grades described in the 2 above.

MOG-induced EAE [2] = experiment: MOG-induced EAE, repeat study (Example 2.3); assay type: in vivo, C57B1/6 mice
Experimental: 120 female C57B1/6 mice 8-10 weeks old were used the study. Mice were allocated randomly into 8 groups according to Table 7 below.
24 mg MOG was diluted in 8 ml PBS (3 mg/ml, stock solution). Groups 1, 3, 5 and 7: 4 ml of stock solution was diluted 1:1 with PBS. […] This solution was mixed 1:1 with the stock solution of MOG.
The high dose LAQ (25 mg/10 ml/kg) solution (150 mg in 60 ml DDW) was prepared once weekly and stored in the amber glass at room temperature. The lower LAQ doses were prepared daily. For the dose of 5 mg/kg, 1.6 ml of stock solution were added to 6.4 ml DDW. For the dose 1 mg/kg, […] of the previous solution (intermediate dose) were added to 5.2 ml DDW. The compound was administered by gavage once daily during the hole experiment (30 days) at a volume of 0.2 ml/mouse.
The mice were observed daily from the 10th day post-EAE induction (first injection of MOG) and the EAE clinical signs were scored according to the grades described in the 2 above.

[3] = Weight of EAE mice (Example 2.1); assay type: in vivo, C57B1/6 mice
Source text: FIG. 1 is a graphical representation of the experimental results from Example 2.1.
The differences were statistically significant (by MANOVA). […] However, when the first signs appeared the mice started to lose weight. On days 16 and 24 the weight of control mice was statistically different from almost all the others (Table 4, FIG. 1B).

MSCH-induced EAE = MSCH-induced EAE in CSJL mice (Example 2.7); assay type: in vivo, CSJL/F1 mice
[4] = laquinimod 2.5 mg/kg/day gavage, alone or + GA-blocking 12.5 mg/kg day 0
[5] = laquinimod 5 mg/kg/day gavage, alone or + GA-blocking 12.5 mg/kg day 0
[6] = laquinimod 1 mg/kg/day gavage, alone or + GA-blocking 12.5 mg/kg day 0
[7] = laquinimod 25 mg/kg/day gavage, alone or + GA-blocking 12.5 mg/kg day 0
[8] = laquinimod 5 mg/kg/day, alone or + GA-blocking
[9] = laquinimod 25 mg/kg/day, alone or + GA-blocking
[10] = LAQ 0.01 mg/kg/day oral, alone or + GA Blocking 0.5 mg/kg
[11] = LAQ 0.1 mg/kg/day oral, alone or + GA Blocking 0.5 mg/kg
[12] = GA-blocking 12.5 mg/kg in inoculum day 0
[13] = GA-blocking 12.5 mg/kg with inoculum day 0
[14] = GA blocking 0.5 mg/kg (sub-optimal dose), with encephalitogen

Molecule: CCN(C(=O)c1c(O)c2c(Cl)cccc2n(C)c1=O)c1ccccc1 [laquinimod]
- inhibition at 2.5 mg/kg (MOG-induced EAE [1]; Mus musculus, po, 0 h, laquinimod 2.5 mg/kg/day gavage, alone or + GA-blocking 12.5 mg/kg day 0, read-out: % Inhibition compared to control (GMS)): 53.7%
- inhibition at 5 mg/kg (MOG-induced EAE [1]; Mus musculus, po, 0 h, laquinimod 5 mg/kg/day gavage, alone or + GA-blocking 12.5 mg/kg day 0, read-out: % Inhibition compared to control (GMS)): ≤ 68%
- Group Mean Score (MOG-induced EAE [1]; [4]): 1.50**
- Incidence (MOG-induced EAE [1]; [4]): 13/15
- Mean Disease Duration (MOG-induced EAE [1]; [4]): 10.2*** days
- Mean Maximal Score (MOG-induced EAE [1]; [4]): 3.17**
- Mean Onset (MOG-induced EAE [1]; [4]): 18.9*** days
- Mortality (MOG-induced EAE [1]; [4]): 1/15
- % inhibition compared to Control (GMS) (MOG-induced EAE [1]; [5]): 68.2%
- Group Mean Score (MOG-induced EAE [1]; [5]): 1.03***
- Incidence (MOG-induced EAE [1]; [5]): 12/14
- Mean Disease Duration (MOG-induced EAE [1]; [5]): 8.6*** days
- Mean Maximal Score (MOG-induced EAE [1]; [5]): 2.89**
- Mean Onset (MOG-induced EAE [1]; [5]): 18.1*** days
- Mortality (MOG-induced EAE [1]; [5]): 0/14
- inhibition at 1 mg/kg (MOG-induced EAE [2]; Mus musculus, po, 0 h, laquinimod 1 mg/kg/day gavage, alone or + GA-blocking 12.5 mg/kg day 0, read-out: % inhibition compared to Control (GMS)): -1.2%
- inhibition at 5 mg/kg (MOG-induced EAE [2]; Mus musculus, po, 0 h, laquinimod 5 mg/kg/day gavage, alone or + GA-blocking 12.5 mg/kg day 0, read-out: % inhibition compared to Control (GMS)): 70%
- inhibition at 25 mg/kg (MOG-induced EAE [2]; Mus musculus, po, 0 h, laquinimod 25 mg/kg/day gavage, alone or + GA-blocking 12.5 mg/kg day 0, read-out: % inhibition compared to Control (GMS)): 95%
- Group Mean Score (MOG-induced EAE [2]; [6]): 2.50
- Incidence (MOG-induced EAE [2]; [6]): 15/15
- Mean Disease Duration (MOG-induced EAE [2]; [6]): 14.1 days
- Mean Maximal Score (MOG-induced EAE [2]; [6]): 4.27
- Mean Onset (MOG-induced EAE [2]; [6]): 13.7 days
- Mortality (MOG-induced EAE [2]; [6]): 4/15
- Group Mean Score (MOG-induced EAE [2]; [5]): 0.74**
- Incidence (MOG-induced EAE [2]; [5]): 11/15
- Mean Disease Duration (MOG-induced EAE [2]; [5]): 6.3*** days
- Mean Maximal Score (MOG-induced EAE [2]; [5]): 2.23*
- Mean Onset (MOG-induced EAE [2]; [5]): 21.0*** days
- Mortality (MOG-induced EAE [2]; [5]): 0/15
- % inhibition compared to Control (GMS) (MOG-induced EAE [2]; [7]): 95.1%
- Group Mean Score (MOG-induced EAE [2]; [7]): 0.12***
- Incidence (MOG-induced EAE [2]; [7]): 6/15
- Mean Disease Duration (MOG-induced EAE [2]; [7]): 1.5*** days
- Mean Maximal Score (MOG-induced EAE [2]; [7]): 0.77***
- Mean Onset (MOG-induced EAE [2]; [7]): 24.7*** days
- Mortality (MOG-induced EAE [2]; [7]): 0/15
- weight, day 5 after induction [3, 8]: 17.5
- weight, day 10 after induction [3, 8]: 18.5
- weight, day 16 after induction [3, 8]: 18.6
- weight, day 24 after induction [3, 8]: 16.5
- weight, day 30 after induction [3, 8]: 16.0
- weight, day 5 after induction [3, 9]: 17.8
- weight, day 10 after induction [3, 9]: 18.9
- weight, day 16 after induction [3, 9]: 19.1*
- weight, day 24 after induction [3, 9]: 17.5
- weight, day 30 after induction [3, 9]: 17.6
- % Inhibition 1 (incidence) (MSCH-induced EAE; [10]): 0.0%
- GMS % Inhibition 3 (MSCH-induced EAE; [10]): 16.7%
- GMS value (MSCH-induced EAE; [10]): 3.5 ± 0.9
- Incidence (MSCH-induced EAE; [10]): 10/10
- MMS % Inhibition 2 (MSCH-induced EAE; [10]): 4.0%
- MMS value (MSCH-induced EAE; [10]): 4.8 ± 0.4
- Mean Duration (MSCH-induced EAE; [10]): 11.5 ± 0.8 days
- Mean Onset (MSCH-induced EAE; [10]): 12.5 ± 0.8 days
- % Inhibition 1 (incidence) (MSCH-induced EAE; [11]): 10.0%
- GMS % Inhibition 3 (MSCH-induced EAE; [11]): 31.0%
- GMS value (MSCH-induced EAE; [11]): 2.9 ± 1.5
- Incidence (MSCH-induced EAE; [11]): 9/10
- MMS % Inhibition 2 (MSCH-induced EAE; [11]): 18.0%
- MMS value (MSCH-induced EAE; [11]): 4.2 ± 1.7
- Mean Duration (MSCH-induced EAE; [11]): 9.8 ± 4.0 days
- Mean Onset (MSCH-induced EAE; [11]): 14.2 ± 4.0 days
- % Inhibition 1 (incidence) (MSCH-induced EAE; LAQ 0.3 mg/kg/day oral): 0.0%
- GMS % Inhibition 3 (MSCH-induced EAE; LAQ 0.3 mg/kg/day oral): 28.6%
- GMS value (MSCH-induced EAE; LAQ 0.3 mg/kg/day oral): 3.0 ± 1.2
- Incidence (MSCH-induced EAE; LAQ 0.3 mg/kg/day oral): 10/10
- MMS % Inhibition 2 (MSCH-induced EAE; LAQ 0.3 mg/kg/day oral): 16.0%
- MMS value (MSCH-induced EAE; LAQ 0.3 mg/kg/day oral): 4.2 ± 1.0
- Mean Duration (MSCH-induced EAE; LAQ 0.3 mg/kg/day oral): 10.8 ± 2.0 days
- Mean Onset (MSCH-induced EAE; LAQ 0.3 mg/kg/day oral): 13.2 ± 2.0 days
- Mortality (MSCH-induced EAE; LAQ 0.3 mg/kg/day oral): 6/10
- % Inhibition 1 (incidence) (MSCH-induced EAE; LAQ 1.0 mg/kg/day oral): 0.0%
- GMS % Inhibition 3 (MSCH-induced EAE; LAQ 1.0 mg/kg/day oral): 38.1%
- GMS value (MSCH-induced EAE; LAQ 1.0 mg/kg/day oral): 2.6 ± 1.1
- Incidence (MSCH-induced EAE; LAQ 1.0 mg/kg/day oral): 10/10
- MMS % Inhibition 2 (MSCH-induced EAE; LAQ 1.0 mg/kg/day oral): 28.0%
- MMS value (MSCH-induced EAE; LAQ 1.0 mg/kg/day oral): 3.6 ± 0.0
- Mean Duration (MSCH-induced EAE; LAQ 1.0 mg/kg/day oral): 10.7 ± 1.9 days
- Mean Onset (MSCH-induced EAE; LAQ 1.0 mg/kg/day oral): 13.0 ± 2.0 days
- Mortality (MSCH-induced EAE; LAQ 1.0 mg/kg/day oral): 3/10
- Mortality (MSCH-induced EAE; mouse, in vivo): 7/10 and 8/10

Molecule: L-glutamic acid polymer with L-alanine, L-lysine and L-tyrosine, acetate (salt) [GA]
- % inhibition compared to Control (GMS) (MOG-induced EAE [1]; [12]): 77.5%
- Group Mean Score (MOG-induced EAE [1]; [12]): 0.73***
- Incidence (MOG-induced EAE [1]; [12]): 11/14
- Mean Disease Duration (MOG-induced EAE [1]; [12]): 7.1*** days
- Mean Maximal Score (MOG-induced EAE [1]; [12]): 2.18***
- Mean Onset (MOG-induced EAE [1]; [12]): 18.7*** days
- % inhibition compared to Control (GMS) (MOG-induced EAE [2]; [13]): 78.9%
- Group Mean Score (MOG-induced EAE [2]; [13]): 0.52***
- Incidence (MOG-induced EAE [2]; [13]): 5/15
- Mean Disease Duration (MOG-induced EAE [2]; [13]): 3.7*** days
- Mean Maximal Score (MOG-induced EAE [2]; [13]): 0.97***
- Mean Onset (MOG-induced EAE [2]; [13]): 25.6*** days
- weight, day 5 after induction ([3]; GA-blocking alone): 17.9
- weight, day 10 after induction ([3]; GA-blocking alone): 19.3
- weight, day 16 after induction ([3]; GA-blocking alone): 19.9**
- weight, day 24 after induction ([3]; GA-blocking alone): 18.0*
- weight, day 30 after induction ([3]; GA-blocking alone): 18.2
- % Inhibition 1 (incidence) (MSCH-induced EAE; [14]): 30.0%
- GMS % Inhibition 3 (MSCH-induced EAE; [14]): 61.9%
- GMS value (MSCH-induced EAE; [14]): 1.6 ± 1.5
- Incidence (MSCH-induced EAE; [14]): 7/10
- MMS % Inhibition 2 (MSCH-induced EAE; [14]): 42.0%
- MMS value (MSCH-induced EAE; [14]): 2.9 ± 2.1
- Mean Duration (MSCH-induced EAE; [14]): 5.8 ± 4.5 days
- Mean Onset (MSCH-induced EAE; [14]): 17.0 ± 4.9 days
